Laboratory results taken from patent publication US6355238B1, “Specific immune system modulation” (Yale University, priority 1992, dated 2002).

Columns and labels:
[1] = compared with 8-MOP; Calzavara-Pinton et al. 1992; cited from earlier work
Lysozyme = Lysozyme (Gallus gallus, UniProt P00698); assay: Covalent photobinding of 8-MOP to lysozyme (liquid scintillation, [3H]8-MOP); format: binding; conditions: lysozyme 0.4 mg/ml, 8-MOP 0.04 mg/ml
Procedure: Lysozyme (0.4 mg/ml) and 8-MOP (0.04 mg/ml) including trace amounts of [3H]8-MOP) were exposed to UVA (3.6 mW/cm^2; filtered with window glass to remove UVB). Aliquots were taken after 15, 30, 60 and 120 min. UVA exposure and were dialyzed exhaustively using distilled water in a microdialyzer (BRL, Bethesda, Md.). An aliquot of each sample was analyzed by liquid scintillation analysis to determine the extent of covalent photobinding of 8-MOP.

Chick ovalbumin = molecular target: T1, Chick ovalbumin (Gallus gallus, UniProt P01012); assay: Covalent photobinding of 8-MOP to ovalbumin with visible light; format: binding
T1 sequence (P01012 1-386): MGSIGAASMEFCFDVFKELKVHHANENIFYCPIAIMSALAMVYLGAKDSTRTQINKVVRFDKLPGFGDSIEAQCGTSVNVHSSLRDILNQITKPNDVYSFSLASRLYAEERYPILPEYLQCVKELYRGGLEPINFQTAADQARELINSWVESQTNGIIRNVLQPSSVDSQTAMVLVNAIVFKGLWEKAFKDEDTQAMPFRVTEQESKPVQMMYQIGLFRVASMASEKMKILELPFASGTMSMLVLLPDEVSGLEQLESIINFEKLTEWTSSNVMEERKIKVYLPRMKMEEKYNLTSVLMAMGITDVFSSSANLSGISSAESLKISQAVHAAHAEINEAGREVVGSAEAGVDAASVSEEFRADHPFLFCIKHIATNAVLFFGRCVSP
Procedure: Approximately 0.1% photoadducts were observed per amino acid.
Ovalbumin (0.4 mg/ml) and 8-MOP (0.04 mg/ml) containing trace amounts of [^3H]8-MOP) were exposed to visible radiation (419 nm) for 60 min. and thereafter, dialyzed exhaustively using distilled water in a microdialyzer (BRL, Bethesda, Md.). An aliquot of the sample was analyzed by liquid scintillation analysis.

Chain of Lysozyme (P00698 19-147): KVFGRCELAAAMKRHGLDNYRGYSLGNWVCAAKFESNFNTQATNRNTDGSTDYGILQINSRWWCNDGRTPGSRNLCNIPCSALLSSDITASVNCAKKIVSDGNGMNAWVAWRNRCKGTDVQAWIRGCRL

moles 8-MOP/moles Lysozyme (Lysozyme; 0 min UVA exposure) | moles 8-MOP/moles Lysozyme (Lysozyme; 30 min UVA exposure (3.6 mW/cm^2)) | moles 8-MOP/moles Lysozyme (Lysozyme; 60 min UVA exposure (3.6 mW/cm^2)) | moles 8-MOP/moles Lysozyme (Lysozyme; 120 min UVA exposure (3.6 mW/cm^2)) | photoadducts per amino acid (Chick ovalbumin; visible light (419 nm)) | SMILES | efficacy in the treatment of psoriasis [1] | extent of covalent photobinding of 8-MOP to ovalbumin (Chick ovalbumin; visible radiation (419 nm) 60 min, ovalbumin 0.4 mg/ml, 8-MOP 0.04 mg/ml)
– | – | – | – | – | COc1c2ccoc2cc2oc(=O)ccc12 [5-MOP, 5-methoxypsoralen] | not as efficacious as 8-MOP | –
0 moles 8-MOP/moles Lysozyme | 0.90 moles 8-MOP/moles Lysozyme | 2.04 moles 8-MOP/moles Lysozyme | 1.86 moles 8-MOP/moles Lysozyme | Approximately 0.1% | COc1c2occc2cc2ccc(=O)oc12 [8-MOP, 8-methoxypsoralen] | – | approximately 0.039 8-MOP molecules/ovalbumin molecule
